Here are results for eight compounds from patent US5886000A, “Anti-HIV agent” (Nissui Pharmaceutical Co., Ltd,, priority 1994, dated 1999).

Where two headings read alike, the source gives them in different places.

The test system of series [1] is CEM/LAV-1. Kind of series: Anti-HIV activity in persistently infected CEM/LAV-1 cells. The series is classed as cell-based. The procedure: (§1) Predetermined concentrations of test agents were separately added to cells (2×10^5 cells/ml, 10 ml) persistently infected with HIV in a logarithmic growth phase to culture them for 96 hours, thereby counting the number of living cells and the number of killed cells every 24 hours by a trypan blue dye exclusion test to determine the cytotoxic effects of the test agents on the cells. A viral infectious titer (TCID50 /ml) in each of the culture solutions incubated for 96 hours was determined by 72-hour culture using, as an index, the giant cell formation of MT-4 cells. As a control, culture was conducted in a medium free of any agent. An anti-HIV activity (inhibition %) was determined in accordance with the following equation. [formula]

For series [2], the system named is Molt-4/IIIB. Kind of series: Anti-HIV activity in persistently infected Molt-4/IIIB cells. In kind it is cell-based. As to conditions: Human immunodeficiency virus 1, IIIB, read-out: Anti-HIV activities (inhibition %). As to the method:
as §1

The subject of series [3] is U937 /RF. The series can be described thus: Anti-HIV activity in persistently infected U937 /RF cells. In kind it is cell-based. The procedure: as §1
Series [4] relates to H9 /MN. The series can be described thus: Anti-HIV activity in persistently infected H9 /MN cells. The series is classed as cell-based. As to the method:
as §1

In series [5] the test system is AIDS. As to conditions: clinical use; cited from earlier work.
The target of series [6] is T1, Tat (Human immunodeficiency virus type 1 group M subtype B, UniProt P04608).
T1 construct: expressed in transfected cells; host or cells: COS-7 cells
T1 sequence (P04608 whole entry): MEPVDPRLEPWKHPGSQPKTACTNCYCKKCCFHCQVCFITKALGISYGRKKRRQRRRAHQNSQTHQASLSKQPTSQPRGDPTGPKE
The series can be described thus: Tat-inhibiting effect (reporter plasmid and Tat activator plasmid cotransfected into COS-7 cells). The series is classed as cell-based, HIV. The procedure:
After a reporter plasmid and an activator plasmid of Tat were cotransfected into COS-7 cells by a DEAE dextran method to culture the cells at 37° C. for 24 hours in the presence of 5% CO2, the transfectant was added to 96-well microplates, in which a test agent had been placed in advance, in a proportion of 1×10^4 cells/well, followed by reculture at 37° C. for 3 days in the presence of 5% CO2. A supernatant (50 μl) of each of the cultures was then added to another 96-well microplate in which p-nitrophenyl phosphate as a substrate and a buffer had been placed, followed by incubation at 37° C. for 3 hours. The variation in absorbance at 405 nm due to p-nitrophenol formed was then measured to determine the presence of a Tat-inhibiting effect.

Series [7] concerns HIV-constituting proteins (p24, p41). The series can be described thus: Detection of HIV-constituting proteins by western immunoblotting, primarily infected CEM cells. Particulars: 500 μM. In kind it is cell-based, HIV-1. As to the method: (§2) Cells were collected from a culture solution (1.0×10^6 cells/ml, 108 ml) of CEM in a logarithmic growth phase by centrifugation (260×g, 5 minutes). An HIV-1 virus solution (12×10^5 TCID50) was added to the cells to culture them at 37° C. for 24 hours in 180 ml of a medium, thereby adsorbing the virus thereon. After a culture supernatant containing the virus was then removed by centrifugation (260×g, 5 minutes), and the residue was washed three times with 50 ml of an RPMI-1640 basal medium under centrifugation (260×g, 5 minutes), media separately containing predetermined concentrations of test agents were used to prepare cell suspensions (1×10^5 cells/ml, 50 ml×2 sample for each concentration of the test agents). Each of these cell culture solutions was collected in 25-ml portions every 24 hours until 96 hours passed by. The collected solutions were subjected to SDS-PAGE, followed by western immunoblotting to detect virus-constituting proteins. Incidentally, an HIV-1 positive serum was used as a primary antibody.

Series [8] concerns CEM/LAV cells. The series can be described thus: Cytotoxicity test, CEM/LAV cells persistently producing HIV-1 (trypan blue dye exclusion). In kind it is cell-based. Particulars: 500 μM. As to the method:
(§3) Culture solutions (10 ml) of CEM and a strain CEM/LAV persistently producing HIV-1, both, in a logarithmic growth phase were prepared with media containing various concentrations of a test agent so as to give a concentration of 2.5×10^5 cells/ml, followed by culture at 37° C. in the presence of 5% CO2. After pipetting each cells culture solution every 24 hours, it was collected to count the number of living cells and the number of killed cells by a trypan blue dye exclusion test.

The subject of series [9] is HIV-1 in primarily infected CEM cells. The series can be described thus: Viral infectious titer in culture supernatant of primarily infected CEM cells. Particulars: Human immunodeficiency virus 1, CCRF-CEM, % of a control. In kind it is cell-based.
In series [10] the test system is primarily infected CEM cells. The series can be described thus: Effect on growth of primarily infected CEM cells. The series is classed as cell-based, HIV-1. Particulars: concentrations not greater than 500 μM. The procedure: as §2
The subject of series [11] is CEM cells. Kind of series: Cytotoxicity test, CEM cells (trypan blue dye exclusion). In kind it is cell-based. Particulars: concentrations not greater than 500 μM. As to the method:
as §3

The test system of series [12] is CEM/LAV-1, H9 /MN and Molt-4/IIIB cells. Kind of series: Anti-HIV activity, summary over CEM/LAV-1, H9 /MN and Molt-4/IIIB cells. As to conditions: 500 μM. The series is classed as cell-based. The procedure: as §1
Where [13] appears, read: Human immunodeficiency virus 1, 50 μM, 96 hours, read-out: Anti-HIV activities (inhibition %).
Where [14] appears, read: Human immunodeficiency virus 1, 96 h, read-out: Anti-HIV activities (inhibition %).
Where [15] appears, read: Human immunodeficiency virus 1, U-937, 50 μM, 96 hours, read-out: Anti-HIV activities (inhibition %).
Setting [16] is: COS-7, control = 100, read-out: Specific activity (%) (Average ± SE).
Where [17] appears, read: Human immunodeficiency virus 1, 125 μM, 96 hours, read-out: Anti-HIV activities (inhibition %).
Setting [18] is: Human immunodeficiency virus 1, 500 μM, 96 hours, read-out: Anti-HIV activities (inhibition %).

By inhibition is commonly meant the relative decrease from the control value, in per cent. As to `CC(=C(CCO)SSCC1CCCO1)N(C=O)Cc1cnc(C)nc1N` (stereo in doubt) [Fursultiamine, fursultiamine], the “anti-HIV activity (in words)” value in series [1] (50 μM), in [3] (50 μM) and in [4] (50 μM) was “marked anti-HIV activities” each time. For the same compound, the inhibition at 50 µM in series [1] (setting [13]) amounted to 95%; in series [2] (MOLT-4, 96 h), 0%; in [3] (Human immunodeficiency virus 1, U-937, 96 h, read-out: Anti-HIV activities (inhibition %)) it was 60%; in series [4] (setting [14]), 96%.
`Cc1cn([C@H]2C[C@H](N=[N+]=[N-])[C@@H](CO)O2)c(=O)[nH]c1=O` [AZT, azidothymidine]: the side effects entry in series [5] is “headache, gastrointestinal disorders and a myelodepresant effect”.
For `C=CCSSC(CCO)=C(C)N(C=O)Cc1cnc(C)nc1N` [Alitiamine, alitiamine], the “anti-HIV activity (in words)” value in [1] (50 μM) was “marked anti-HIV activities”. The inhibition at 50 µM in [2] (MOLT-4, 50 μM, 96 hours) came to 0%; in series [3] (setting [15]), 0%; in [4] (setting [13]), 0%.
With `CC(=C(CCOC(=O)C(C)C)SSC(CCOC(=O)C(C)C)=C(C)N(C=O)Cc1cnc(C)nc1N)N(C=O)Cc1cnc(C)nc1N` [Bisibutiamine, bisibutiamine], the inhibition at 50 µM in [1] (setting [14]) is 0%; in [2] (MOLT-4, 50 μM, 96 hours), 0%; in series [3] (setting [15]), 0%; in series [4] (setting [13]) it was 60%. For the same compound, the “anti-HIV activity (in words)” value in series [4] (50 μM) is reported as “marked anti-HIV activities”.
As to `N[C@@H](CCC(=O)N[C@@H](CS)C(=O)NCC(=O)O)C(=O)O` [Glutathione], the activity at 250 µM in series [6] (setting [16]) was 110 ± 17%.
As to `CC(=O)N[C@@H](CS)C(=O)O` [N-Acetylcysteine], in series [6] (setting [16]), the activity at 125 µM stood at 107 ± 13%, the activity at 250 µM was determined as 92 ± 8% and the activity at 500 µM stood at 81.5 ± 5.7%.
Turning to `CC(=C(CCO)SSC(CCO)=C(C)N(C=O)Cc1cnc(C)nc1N)N(C=O)Cc1cnc(C)nc1N` [Thiamine disulfide, thiamine disulfide], in series [7], the “formation of p24 and p41 protein in culture supernatant” value is reported as “neither p24 protein nor p41 protein was formed”. The inhibition at 125 µM stood at 51% in [1] (setting [17]); 80% in series [2] (MOLT-4, 125 μM, 96 hours); 0% in series [3] (Human immunodeficiency virus 1, U-937, 125 μM, 96 hours, read-out: Anti-HIV activities (inhibition %)); 90% in series [4] (setting [17]). The inhibition at 500 µM worked out at 90% in series [1] (setting [18]); 97% in series [2] (MOLT-4, 500 μM, 96 hours); 80% in series [3] (Human immunodeficiency virus 1, U-937, 500 μM, 96 hours, read-out: Anti-HIV activities (inhibition %)); 99% in [4] (setting [18]). For the same compound, in series [8], the “effect on growth and proliferation of CEM/LAV cells” value is “clearly inhibited the growth and proliferation”. In addition, the “number of killed cells” value in [8] is reported as “the number of killed cells did not increase”. The activity at 125 µM in series [6] (setting [16]) is 92.3 ± 6.1%. Further, the activity at 250 µM in series [6] (setting [16]) is 64.4 ± 6.1%. For the same compound, the activity at 500 µM in series [6] (setting [16]) was 36.1 ± 6.3%; in series [9], 0.3%. In series [6] (concentrations of 125-500 μM), the “inhibition of the activity of Tat” value is “inhibited the activity of Tat in dependence on dose”. In addition, the “anti-HIV activity (in words)” value in series [3] (concentration not given) and in series [12] was “marked anti-HIV activities” throughout. Also, the “effect on growth of primarily infected CEM cells” value in series [10] is given as “did not affect the growth”. The “effect on growth and proliferation of CEM cells” value in series [11] is “did not affect the growth and proliferation”.
With `O=C(O)CCCCC1CCSS1` (stereo not drawn) [α-Lipoic acid], the activity at 62.5 µM in series [6] (COS-7, 62.5 μM, control = 100, read-out: Specific activity (%) (Average ± SE)) stood at 78.8 ± 7.4%. For the same compound, in series [6] (setting [16]), the activity at 125 µM stood at 41.6 ± 9.9% and the activity at 250 µM was 17.5 ± 2.1%.
